{"source": "ChEMBL document CHEMBL1671654", "about": "“In vivo activity of the pyrrolopyrazolyl-substituted oxazolidinone RWJ-416457” (Antimicrob Agents Chemother, 2009)", "key": {"[1]": {"test": "Cmax in CF-1 mouse at 10 mg/kg, sc", "assay_type": "ADME, organism-based", "parameters": "dose 10 mg/kg, route subcutaneous", "conditions": "in vivo"}, "Staphylococcus aureus [2]": {"system": "Staphylococcus aureus", "test": "Antibacterial activity against community-associated methicillin-resistant Staphylococcus aureus OC8525 infected in po dosed Swiss Webster mouse administered at 1 to 3 hrs post infection measured after 3 days", "assay_type": "functional"}, "[3]": {"test": "Cmax in CF-1 mouse at 10 mg/kg, po", "assay_type": "ADME, organism-based", "parameters": "dose 10 mg/kg, route oral", "conditions": "in vivo"}, "Mus musculus [4]": {"system": "Mus musculus", "test": "fCmax in CF-1 mouse at 2 mg/kg, iv", "assay_type": "ADME, organism-based", "parameters": "dose 2 mg/kg, route intravenous", "conditions": "in vivo"}, "Streptococcus pneumoniae [5]": {"system": "Streptococcus pneumoniae", "test": "Antibacterial activity against penicillin-susceptible Streptococcus pneumoniae ATCC 6301 infected in iv dosed Swiss Webster mouse administered at 1 to 3 hrs post infection measured after 3 days", "assay_type": "functional", "conditions": "ATCC 6301, iv"}, "[6]": {"test": "Ratio of fAUC (24 hrs) for penicillin-susceptible Streptococcus pneumoniae ATCC 6301 infected iv dosed mouse to MIC for penicillin-susceptible Streptococcus pneumoniae ATCC 6301", "assay_type": "functional"}, "[7]": {"test": "Tmax in CF-1 mouse serum at 10 mg/kg, sc", "assay_type": "ADME, organism-based", "parameters": "dose 10 mg/kg, route subcutaneous"}, "[8]": {"test": "Tmax in CF-1 mouse serum at 10 mg/kg, po", "assay_type": "ADME, organism-based", "parameters": "dose 10 mg/kg, route oral"}, "[9]": {"test": "Apparent oral clearance in CF-1 mouse at 10 mg/kg, po", "assay_type": "ADME, organism-based", "parameters": "dose 10 mg/kg, route oral", "conditions": "in vivo"}, "Streptococcus pneumoniae [10]": {"system": "Streptococcus pneumoniae", "test": "Antibacterial activity against penicillin-susceptible Streptococcus pneumoniae ATCC 6301 infected in po dosed CF-1 mouse administered at 24 hrs post infection measured after 48 hrs relative to Linezolid", "assay_type": "functional", "conditions": "Streptococcus pneumoniae, ATCC 6301, po"}, "[11]": {"test": "Clearance in CF-1 mouse at 2 mg/kg, iv", "assay_type": "ADME, organism-based", "parameters": "dose 2 mg/kg, route intravenous", "conditions": "in vivo"}, "[12]": {"test": "Half life in CF-1 mouse at 10 mg/kg, po", "assay_type": "ADME, organism-based", "parameters": "dose 10 mg/kg, route oral", "conditions": "in vivo"}, "[13]": {"test": "Ratio of fAUC (24 hrs) for penicillin-susceptible Streptococcus pneumoniae ATCC 6301 infected sc dosed mouse to MIC for penicillin-susceptible Streptococcus pneumoniae ATCC 6301", "assay_type": "functional"}, "[14]": {"test": "Cmax in CF-1 mouse at 2 mg/kg, iv", "assay_type": "ADME, organism-based", "parameters": "dose 2 mg/kg, route intravenous", "conditions": "in vivo"}, "[15]": {"test": "Ratio of fAUC (24 hrs) for community-associated methicillin-resistant Staphylococcus aureus OC8525 infected sc dosed mouse to MIC for community-associated methicillin-resistant Staphylococcus aureus OC8525", "assay_type": "functional"}, "[16]": {"test": "Ratio of fAUC (24 hrs) for Methicillin-susceptible Staphylococcus aureus ATCC 13709 infected po dosed mouse to MIC for Methicillin-susceptible Staphylococcus aureus ATCC 1370", "assay_type": "functional"}, "Mus musculus [17]": {"system": "Mus musculus", "test": "fAUC (0 to 24 hrs) in CF-1 mouse at 10 mg/kg, po", "assay_type": "ADME, organism-based", "parameters": "dose 10 mg/kg, route oral", "conditions": "in vivo"}, "[18]": {"test": "Half life in CF-1 mouse at 10 mg/kg, sc", "assay_type": "ADME, organism-based", "parameters": "dose 10 mg/kg, route subcutaneous", "conditions": "in vivo"}, "Mus musculus [19]": {"system": "Mus musculus", "test": "fCmax in CF-1 mouse at 10 mg/kg, sc", "assay_type": "ADME, organism-based", "parameters": "dose 10 mg/kg, route subcutaneous", "conditions": "in vivo"}, "[20]": {"test": "Ratio of fAUC (24 hrs) for community-associated methicillin-resistant Staphylococcus aureus OC8525 infected iv dosed mouse to MIC for community-associated methicillin-resistant Staphylococcus aureus OC8525", "assay_type": "functional"}, "Mus musculus [21]": {"system": "Mus musculus", "test": "fAUC (0 to 24 hrs) in CF-1 mouse at 10 mg/kg, sc", "assay_type": "ADME, organism-based", "parameters": "dose 10 mg/kg, route subcutaneous", "conditions": "in vivo"}, "[22]": {"test": "AUC (0 to 24 hrs) in CF-1 mouse at 10 mg/kg, sc", "assay_type": "ADME, organism-based", "parameters": "time < 24 hr, dose 10 mg/kg, route subcutaneous", "conditions": "plasma"}, "Staphylococcus aureus [23]": {"system": "Staphylococcus aureus", "test": "Bacteriostatic activity against methicillin-susceptible Staphylococcus aureus Smith ATCC 13709 infected in SKH1 mouse upto 320 mg/kg/day, po administered post infection measured after 48 hrs", "assay_type": "functional, organism-based"}, "[24]": {"test": "Apparent oral clearance in CF-1 mouse at 10 mg/kg, sc", "assay_type": "ADME, organism-based", "parameters": "dose 10 mg/kg, route oral", "conditions": "in vivo"}, "Staphylococcus aureus [25]": {"system": "Staphylococcus aureus", "test": "Antibacterial activity against community-associated methicillin-resistant Staphylococcus aureus OC8525 infected in iv dosed Swiss Webster mouse administered at 1 to 3 hrs post infection measured after 3 days", "assay_type": "functional"}, "Mus musculus [26]": {"system": "Mus musculus", "test": "fAUC (0 to 24 hrs) in CF-1 mouse at 2 mg/kg, iv", "assay_type": "ADME, organism-based", "parameters": "dose 2 mg/kg, route intravenous", "conditions": "in vivo"}, "Streptococcus pneumoniae [27]": {"system": "Streptococcus pneumoniae", "test": "Antibacterial activity against penicillin-susceptible Streptococcus pneumoniae ATCC 6301 infected in sc dosed Swiss Webster mouse administered at 1 to 3 hrs post infection measured after 3 days", "assay_type": "functional", "conditions": "ATCC 6301, sc"}, "[28]": {"test": "AUC (0 to 24 hrs) in CF-1 mouse at 2 mg/kg, iv", "assay_type": "ADME, organism-based", "parameters": "time < 24 hr, dose 2 mg/kg, route intravenous", "conditions": "plasma"}, "Streptococcus pneumoniae [29]": {"system": "Streptococcus pneumoniae", "test": "Antibacterial activity against penicillin-susceptible Streptococcus pneumoniae ATCC 6301 infected in po dosed Swiss Webster mouse administered at 1 to 3 hrs post infection measured after 3 days", "assay_type": "functional", "conditions": "ATCC 6301, po"}, "[30]": {"test": "Ratio of fAUC (24 hrs) for community-associated methicillin-resistant Staphylococcus aureus OC8525 infected po dosed mouse to MIC for community-associated methicillin-resistant Staphylococcus aureus OC8525", "assay_type": "functional"}, "Staphylococcus aureus [31]": {"system": "Staphylococcus aureus", "test": "Antibacterial activity against methicillin-susceptible Staphylococcus aureus ATCC 13709 infected in iv dosed Swiss Webster mouse administered at 1 to 3 hrs post infection measured after 3 days", "assay_type": "functional", "conditions": "ATCC 13709, iv"}, "[32]": {"test": "AUC (0 to 24 hrs) in CF-1 mouse at 10 mg/kg, po", "assay_type": "ADME, organism-based", "parameters": "time < 24 hr, dose 10 mg/kg, route oral", "conditions": "plasma"}, "Staphylococcus aureus [33]": {"system": "Staphylococcus aureus", "test": "Antibacterial activity against methicillin-susceptible Staphylococcus aureus ATCC 13709 infected in sc dosed Swiss Webster mouse administered at 1 to 3 hrs post infection measured after 3 days", "assay_type": "functional", "conditions": "ATCC 13709, sc"}, "[34]": {"test": "Ratio of fAUC (24 hrs) for penicillin-susceptible Streptococcus pneumoniae ATCC 6301 infected po dosed mouse to MIC for penicillin-susceptible Streptococcus pneumoniae ATCC 6301", "assay_type": "functional"}, "[35]": {"test": "Ratio of fAUC (24 hrs) for Methicillin-susceptible Staphylococcus aureus ATCC 13709 infected iv dosed mouse to MIC for Methicillin-susceptible Staphylococcus aureus ATCC 1370", "assay_type": "functional"}, "Staphylococcus aureus [36]": {"system": "Staphylococcus aureus", "test": "Antibacterial activity against community-associated methicillin-resistant Staphylococcus aureus OC8525 infected in sc dosed Swiss Webster mouse administered at 1 to 3 hrs post infection measured after 3 days", "assay_type": "functional"}, "[37]": {"test": "Half life in CF-1 mouse at 2 mg/kg, iv", "assay_type": "ADME, organism-based", "parameters": "dose 2 mg/kg, route intravenous", "conditions": "in vivo"}, "[38]": {"test": "Ratio of fAUC (24 hrs) for Methicillin-susceptible Staphylococcus aureus ATCC 13709 infected sc dosed mouse to MIC for Methicillin-susceptible Staphylococcus aureus ATCC 1370", "assay_type": "functional"}, "Mus musculus [39]": {"system": "Mus musculus", "test": "fCmax in CF-1 mouse at 10 mg/kg, po", "assay_type": "ADME, organism-based", "parameters": "dose 10 mg/kg, route oral", "conditions": "in vivo"}, "Staphylococcus aureus [40]": {"system": "Staphylococcus aureus", "test": "Antibacterial activity against methicillin-susceptible Staphylococcus aureus ATCC 13709 infected in po dosed Swiss Webster mouse administered at 1 to 3 hrs post infection measured after 3 days", "assay_type": "functional", "conditions": "ATCC 13709, po"}}, "note": "Activity calls are given as the source filed them. The calls are words filed in the database; no cut-off is given here.", "data": [{"molecule": "CC(=O)NC[C@H]1CN(c2ccc(N3CCOCC3)c(F)c2)C(=O)O1", "note": "[LINEZOLID]", "values": [{"measurement": "Cmax", "setting": "[1]", "value": 11000, "unit": "ng/mL"}, {"measurement": "ED50", "setting": "Staphylococcus aureus [2]", "value": 5.1, "unit": "mg/kg/day"}, {"measurement": "Cmax", "setting": "[3]", "value": 8900, "unit": "ng/mL"}, {"measurement": "fCmax", "setting": "Mus musculus [4]", "value": 2.3, "unit": "µg/mL"}, {"measurement": "ED50", "setting": "Streptococcus pneumoniae [5]", "value": "> 40", "unit": "mg/kg/day"}, {"measurement": "fAUC/MIC", "setting": "[6]", "value": 3.6}, {"measurement": "Tmax", "setting": "[7]", "value": "≤ 7.8", "unit": "min"}, {"measurement": "Tmax", "setting": "[8]", "value": "≤ 7.8", "unit": "min"}, {"measurement": "CL/F", "setting": "[9]", "value": 8.67, "unit": "mL/min/kg"}, {"measurement": "ED50", "setting": "Streptococcus pneumoniae [10]", "value": "≥ 14", "unit": "mg/kg/day"}, {"measurement": "clearance", "setting": "[11]", "value": 15.7, "unit": "mL/min/kg"}, {"measurement": "half-life", "setting": "[12]", "value": 84, "unit": "min"}, {"measurement": "fAUC/MIC", "setting": "[13]", "value": 5.3}, {"measurement": "Cmax", "setting": "[14]", "value": 3300, "unit": "ng/mL"}, {"measurement": "fAUC/MIC", "setting": "[15]", "value": 2.6}, {"measurement": "fAUC/MIC", "setting": "[16]", "value": 6.6}, {"measurement": "fAUC", "setting": "Mus musculus [17]", "value": 13000, "unit": "ng·h/mL"}, {"measurement": "half-life", "setting": "[18]", "value": 48, "unit": "min"}, {"measurement": "fCmax", "setting": "Mus musculus [19]", "value": 7.1, "unit": "µg/mL"}, {"measurement": "fAUC/MIC", "setting": "[20]", "value": 1.8}, {"measurement": "fAUC", "setting": "Mus musculus [21]", "value": 11000, "unit": "ng·h/mL"}, {"measurement": "AUC(0-t) at 24 h", "setting": "[22]", "value": 16000, "unit": "ng·h/mL"}, {"measurement": "Activity", "setting": "Staphylococcus aureus [23]", "value": "Active"}, {"measurement": "CL/F", "setting": "[24]", "value": 10.7, "unit": "mL/min/kg"}, {"measurement": "ED50", "setting": "Staphylococcus aureus [25]", "value": 8.5, "unit": "mg/kg/day"}, {"measurement": "fAUC", "setting": "Mus musculus [26]", "value": 1400, "unit": "ng·h/mL"}, {"measurement": "ED50", "setting": "Streptococcus pneumoniae [27]", "value": 20, "unit": "mg/kg/day"}, {"measurement": "AUC(0-t) at 24 h", "setting": "[28]", "value": 2100, "unit": "ng·h/mL"}, {"measurement": "ED50", "setting": "Streptococcus pneumoniae [29]", "value": 14, "unit": "mg/kg/day"}, {"measurement": "fAUC/MIC", "setting": "[30]", "value": 3.3}, {"measurement": "ED50", "setting": "Staphylococcus aureus [31]", "value": 6.3, "unit": "mg/kg/day"}, {"measurement": "AUC(0-t) at 24 h", "setting": "[32]", "value": 19000, "unit": "ng·h/mL"}, {"measurement": "ED50", "setting": "Staphylococcus aureus [33]", "value": 7, "unit": "mg/kg/day"}, {"measurement": "fAUC/MIC", "setting": "[34]", "value": 6.6}, {"measurement": "fAUC/MIC", "setting": "[35]", "value": 3.6}, {"measurement": "ED50", "setting": "Staphylococcus aureus [36]", "value": 3.7, "unit": "mg/kg/day"}, {"measurement": "half-life", "setting": "[37]", "value": 30, "unit": "min"}, {"measurement": "fAUC/MIC", "setting": "[38]", "value": 5.3}, {"measurement": "fCmax", "setting": "Mus musculus [39]", "value": 6, "unit": "µg/mL"}, {"measurement": "ED50", "setting": "Staphylococcus aureus [40]", "value": 6.4, "unit": "mg/kg/day"}]}]}
